Laboratory results as given in patent publication US11819549B2, “Pharmaceutical formulation comprising ciclesonide” (Boehringer Ingelheim Vetmedica GmbH, priority 2012, dated 2023).

Experiments:
[1] = buffering capacity of ciclesonide in the ethanolic solution; assay type: physicochemical; details: ethanol/water solution acidified with HCl 0.1 M
Protocol: More HCl is added than needed to achieve […] in demineralized water alone due to the buffering capacity of ciclesonide.

[2] = chemical stability of ciclesonide in ethanolic formulation as a function of pHapp; assay type: physicochemical; details: pHapp range of 4.0 to 4.6, no buffer
Text: To identify an appropriate pHapp in an ethanolic liquid formulation comprising ciclesonide is a challenge. On the one hand side the stability of ciclesonide is better at higher (more neutral) pH values. However, on the other hand, the pH should not be too high since at low [H^+] values already small amounts of contaminants and decomposition products can cause a relatively large change in pHapp. Furthermore, the use of a buffer for inhalable formulations is undesirable due to the administration of the buffer constituents to the lungs and the possibility of the buffer constituents forming a residue in the inhaler which may affect the spray characteristics of the aerosol. […] The addition of buffer is not necessary to create the advantageous formulation of the present invention.

[3] = taken orally; cited from earlier work

| buffering capacity [1] [μmol/g ciclesonide] | chemical stability of ciclesonide [2] | Molecule | potency relative to cortisol [3] [times] | potency relative to prednisone [3] [times] |
| --- | --- | --- | --- | --- |
| −3.6 | chemically stable | CC(C)C(=O)OCC(=O)C12OC(C3CCCCC3)OC1CC1C3CCC4=CC(=O)C=CC4(C)C3C(O)CC12C [ciclesonide, (11β,16α)-16,17-[[(R)-Cyclohexylmethylene]bis(oxy)]-11-hydroxy-21-(2-methyl-1-oxopropoxy)pregna-1,4-diene-3,20-dione] |  |  |
|  |  | dexamethasone | 27 | 7 |
